Experimental data taken from ChEMBL document CHEMBL1149334, “Structure of a new cyclic nonapeptide, segetalin F, and vasorelaxant activity of segetalins from Vaccaria segetalis” (Bioorg Med Chem Lett, 2006).
Calls of active or inactive are those of the source. No cut-off for these calls is given here. Residues, ends and D or L forms follow the SMILES beside them.

Experiments:
Type in all cases: functional, organism-based
Conditions in all cases: Aorta
[1] = species on record: Rattus norvegicus; assay: Vasorelaxation effect against norepinephrine-induced contraction of rat thoracic aortic ring without endothelium at 100 uM
[2] = species on record: Rattus norvegicus; assay: Vasorelaxation effect against norepinephrine-induced contraction of rat thoracic aortic ring with endothelium at 100 uM
[3] = species on record: Rattus norvegicus; assay: Vasocontractile effect on norepinephrine-induced contraction of rat thoracic aortic ring with endothelium at 100 uM
[4] = species on record: Rattus norvegicus; assay: Vasocontractile effect on norepinephrine-induced contraction of rat thoracic aortic ring without endothelium at 100 uM

SMILES	Activity [1]	Activity [2]	Activity [3]	Activity [4]
CC(C)C[C@@H]1NC(=O)CNC(=O)[C@@H]2CCCN2C(=O)[C@H](Cc2ccccc2)NC(=O)[C@H](C)NC(=O)[C@H](Cc2ccccc2)NC(=O)[C@H](Cc2c[nH]cn2)NC1=O (cyclo(AFPGLHF))	Active	Active		
CC(C)C[C@@H]1NC(=O)CNC(=O)[C@@H]2CCCN2C(=O)[C@H](Cc2ccccc2)NC(=O)[C@H](C)NC(=O)[C@H](Cc2ccccc2)NC(=O)[C@H](CO)NC1=O (cyclo(AFPGLSF))	Active	Active		
CC(C)[C@@H]1NC(=O)CNC(=O)[C@H](C)NC(=O)[C@H](Cc2c[nH]c3ccccc23)NC(=O)[C@H](C)NC1=O (cyclo(AGVAW))		Active	Active	Active
CC(C)[C@@H]1NC(=O)CNC(=O)[C@H](C)NC(=O)[C@H](Cc2ccc(O)cc2)NC(=O)[C@H](CCCCN)NC1=O (cyclo(AGVKY))	Active	Active		
CC(C)[C@@H]1NC(=O)[C@@H]2CCCN2C(=O)[C@H](C(C)C)NC(=O)CNC(=O)[C@H](C)NC(=O)[C@H](Cc2c[nH]c3ccccc23)NC1=O (cyclo(AGVPVW))	Active	Active		
C[C@@H]1NC(=O)[C@H](CO)NC(=O)[C@H](Cc2ccccc2)NC(=O)[C@@H]2CCCN2C(=O)[C@H](CCCCN)NC(=O)[C@H](CO)NC(=O)[C@H](CO)NC(=O)[C@H](Cc2ccc(O)cc2)NC(=O)[C@H](CO)NC1=O (cyclo(ASYSSKPFS))	Active	Active		
N=C(N)NCCC[C@@H]1NC(=O)[C@H](Cc2ccc(O)cc2)NC(=O)CNC(=O)[C@H](CO)NC(=O)[C@H](Cc2ccccc2)NC1=O (cyclo(FSGYR))	Active	Active		
